Results from ChEMBL document CHEMBL1124670, “1-(3-cyano-2,3-dideoxy-beta-D-erythro-pentofuranosyl)thymine (cyanothymidine): synthesis and antiviral evaluation against human immunodeficiency virus” (1989).
≈ marks a conversion by molar mass, not a printed value.

Tests used:
Type in all cases: functional, Homo sapiens
ATH-8 cell line = experiment: Protection of ATH8 cells against the cytopathic effect of HIV isolate […]
C8166 [1] = experiment: Protection of C8166 cells against the cytopathic effect of HIV isolate CBL-1
C8166 [2] = experiment: Protection of C8166 cells against the cytopathic effect of HIV isolate RF
C8166 [3] = experiment: Pprotection of C8166 cells against the cytopathic effect of HIV isolate RF

## Cc1cn(C2C[C@@H](C#N)[C@@H](CO)O2)c(=O)[nH]c1=O (stereo partly drawn)
ATH-8 cell line
  ED90: >2.5 µg/mL
C8166 [1]
  ED90: >100 µg/mL
C8166 [2]
  ED90: >100 µg/mL

## Cc1cn([C@H]2C=C[C@@H](CO)O2)c(=O)[nH]c1=O [STAVUDINE]
ATH-8 cell line
  ED90: <0.25 µg/mL
C8166 [3]
  ED90: 1 µg/mL (≈ 4.46 µM)

## Cc1cn([C@H]2C[C@H](N=[N+]=[N-])[C@@H](CO)O2)c(=O)[nH]c1=O [ZIDOVUDINE]
ATH-8 cell line
  ED90: <0.25 µg/mL
C8166 [3]
  ED90: 1 µg/mL (≈ 3.74 µM)
C8166 [1]
  ED90: 0.1 µg/mL (≈ 0.374 µM)
